The values below come from patent US20150141336A1, “Pancreatic Peptide Compounds and Use” (Novo Nordisk A/S, priority 2012, published 2015).

Molecules are shown by their SMILES. Numbered stars: 1 amine (or outer) side, 2 acyl side, 3 side chain; on linkers, the order of the positions; unused ones are H or OH. Side chains are listed from the residue outwards. Peptide text beside a SMILES is read from it. * marks the point of attachment. C18 diacid = O=C(O)CCCCCCCCCCCCCCCCC(=O)*; γGlu = O=C(O)[C@H](CCC(=O)[*:2])N[*:1]; AEEA = NCCOCCOCC(=O)O

A short description of the data set: Assay (II) PK i.v. minipig, in vivo half-life. Also on record: species or system Göttingen mini-pigs. As to conditions: male, Göttingen, minipig, iv, Half-life minipig, Assay (II). In a few lines:
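Plasma levels after a single 6 nmol/kg intravenous dose in five male Göttingen mini-pigs were measured by TFC/LC/MS/MS against spiked-plasma calibration, sampling to 240 h. Vehicle: 50 mM K2HPO4, 0.05% tween 80, pH 8.0. Individual profiles analysed non-compartmentally for half-life.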
What is called half-life is how long it takes for the measured level to halve. In the case of `CC[C@H](C)[C@H](NC(=O)[C@H](Cc1ccc(O)cc1)NC(=O)[C@H](CCCNC(=N)N)NC(=O)[C@H](CCCNC(=N)N)NC(=O)[C@H](CC(C)C)NC(=O)[C@H](CC(=O)O)NC(=O)[C@H](C)NC(=O)[C@H](C)NC(=O)[C@H](Cc1ccc(O)cc1)NC(=O)[C@H](CCC(N)=O)NC(=O)[C@H](C)NC(=O)[C@H](CCSC)NC(=O)[C@H](CCC(N)=O)NC(=O)[C@H](CCC(=O)O)NC(=O)[C@@H]1CCCN1C(=O)[C@@H](NC(=O)[C@H](C)NC(=O)[C@H](CC(N)=O)NC(=O)[C@H](CC(=O)O)NC(=O)CNC(=O)[C@@H]1CCCN1C(=O)[C@H](Cc1ccc(O)cc1)NC(=O)[C@@H](NC(=O)[C@@H]1CCCN1C(=O)[C@H](CCC(=O)O)NC(=O)[C@@H](N)CC(C)C)C(C)C)[C@@H](C)O)C(=O)N[C@@H](CC(N)=O)C(=O)N[C@@H](CCCCNC(=O)COCCOCCNC(=O)COCCOCCNC(=O)CC[C@H](NC(=O)CCCCCCCCCCCCCCCCC(=O)O)C(=O)O)C(=O)N[C@@H](CC(C)C)C(=O)N[C@H](C(=O)N[C@@H](CCCNC(=N)N)C(=O)N1CCC[C@H]1C(=O)N[C@@H](CCCNC(=N)N)C(=O)N[C@@H](Cc1ccc(O)cc1)C(N)=O)[C@@H](C)O` [Compound AL] (H-LEPVYPGDNATPEQMAQYAADLRRYINK([AEEA-AEEA-γGlu-C18 diacid])LTRPRY-NH2; N-terminus and C-terminus assumed), the half-life is 59 h.
Consider `CC[C@H](C)[C@H](NC(=O)[C@H](Cc1ccc(O)cc1)NC(=O)[C@H](CCCNC(=N)N)NC(=O)[C@H](CCCNC(=N)N)NC(=O)[C@H](CC(C)C)NC(=O)[C@H](CC(=O)O)NC(=O)[C@H](C)NC(=O)[C@H](C)NC(=O)[C@H](Cc1ccc(O)cc1)NC(=O)[C@H](CCC(N)=O)NC(=O)[C@H](C)NC(=O)[C@H](CCSC)NC(=O)[C@H](CCC(N)=O)NC(=O)[C@H](CCC(=O)O)NC(=O)[C@@H]1CCCN1C(=O)[C@@H](NC(=O)[C@H](C)NC(=O)[C@H](CC(N)=O)NC(=O)[C@H](CC(=O)O)NC(=O)CNC(=O)[C@@H]1CCCN1C(=O)[C@H](Cc1ccc(O)cc1)NC(=O)[C@@H](NC(=O)[C@@H]1CCCN1C(=O)[C@H](CCC(=O)O)NC(=O)[C@@H](N)CC(C)C)C(C)C)[C@@H](C)O)C(=O)N[C@@H](CC(N)=O)C(=O)N[C@@H](CCSC)C(=O)N[C@@H](CC(C)C)C(=O)N[C@H](C(=O)N[C@@H](CCCCNC(=O)COCCOCCNC(=O)COCCOCCNC(=O)CC[C@H](NC(=O)CCCCCCCCCCCCCCCCC(=O)O)C(=O)O)C(=O)N1CCC[C@H]1C(=O)N[C@@H](CCCNC(=N)N)C(=O)N[C@@H](Cc1ccc(O)cc1)C(N)=O)[C@@H](C)O` [AI] (H-LEPVYPGDNATPEQMAQYAADLRRYINMLTK([AEEA-AEEA-γGlu-C18 diacid])PRY-NH2; N-terminus and C-terminus assumed), for which the half-life is 45 h.
For the compound `CC[C@H](C)[C@H](NC(=O)[C@H](Cc1ccc(O)cc1)NC(=O)[C@H](CCCNC(=N)N)NC(=O)[C@H](CCCNC(=N)N)NC(=O)[C@H](CC(C)C)NC(=O)[C@H](CC(=O)O)NC(=O)[C@H](C)NC(=O)[C@H](C)NC(=O)[C@H](Cc1ccc(O)cc1)NC(=O)[C@H](CCC(N)=O)NC(=O)[C@H](C)NC(=O)[C@H](CCSC)NC(=O)[C@H](CCC(N)=O)NC(=O)[C@H](CCC(=O)O)NC(=O)[C@@H]1CCCN1C(=O)[C@@H](NC(=O)[C@H](C)NC(=O)[C@H](CC(N)=O)NC(=O)[C@H](CC(=O)O)NC(=O)CNC(=O)[C@@H]1CCCN1C(=O)[C@H](Cc1ccc(O)cc1)NC(=O)[C@@H](NC(=O)[C@@H]1CCCN1C(=O)[C@H](CCC(=O)O)NC(=O)[C@H](CCCCNC(=O)COCCOCCNC(=O)COCCOCCNC(=O)CC[C@H](NC(=O)CCCCCCCCCCCCCCCCC(=O)O)C(=O)O)NC(=O)[C@@H]1CCCN1)C(C)C)[C@@H](C)O)C(=O)N[C@@H](CC(N)=O)C(=O)N[C@@H](CCSC)C(=O)N[C@@H](CC(C)C)C(=O)N[C@H](C(=O)N[C@@H](CCCNC(=N)N)C(=O)N1CCC[C@H]1C(=O)N[C@@H](CCCNC(=N)N)C(=O)N[C@@H](Cc1ccc(O)cc1)C(N)=O)[C@@H](C)O` [Compound AE], the half-life was 45 h.
